Data published in ChEMBL document CHEMBL5038659, “Discovery of the First Examples of Threonine Tyrosine Kinase PROTAC Degraders” (J Med Chem, 2022).

Legend:
COLO 205 = experiment: Antiproliferative against human COLO 205 cells assessed as cell viability after 4 days by CCK-8 assay; format: functional, cell-based; conditions: COLO 205, 96 h
[1] = target: T1, Dual specificity protein kinase TTK (Homo sapiens, UniProt P33981); experiment: Binding affinity to human TTK expressed in bacterial expression system assessed as dissociation constant at 100 nM by biochemical assay
T1 sequence (P33981 whole entry): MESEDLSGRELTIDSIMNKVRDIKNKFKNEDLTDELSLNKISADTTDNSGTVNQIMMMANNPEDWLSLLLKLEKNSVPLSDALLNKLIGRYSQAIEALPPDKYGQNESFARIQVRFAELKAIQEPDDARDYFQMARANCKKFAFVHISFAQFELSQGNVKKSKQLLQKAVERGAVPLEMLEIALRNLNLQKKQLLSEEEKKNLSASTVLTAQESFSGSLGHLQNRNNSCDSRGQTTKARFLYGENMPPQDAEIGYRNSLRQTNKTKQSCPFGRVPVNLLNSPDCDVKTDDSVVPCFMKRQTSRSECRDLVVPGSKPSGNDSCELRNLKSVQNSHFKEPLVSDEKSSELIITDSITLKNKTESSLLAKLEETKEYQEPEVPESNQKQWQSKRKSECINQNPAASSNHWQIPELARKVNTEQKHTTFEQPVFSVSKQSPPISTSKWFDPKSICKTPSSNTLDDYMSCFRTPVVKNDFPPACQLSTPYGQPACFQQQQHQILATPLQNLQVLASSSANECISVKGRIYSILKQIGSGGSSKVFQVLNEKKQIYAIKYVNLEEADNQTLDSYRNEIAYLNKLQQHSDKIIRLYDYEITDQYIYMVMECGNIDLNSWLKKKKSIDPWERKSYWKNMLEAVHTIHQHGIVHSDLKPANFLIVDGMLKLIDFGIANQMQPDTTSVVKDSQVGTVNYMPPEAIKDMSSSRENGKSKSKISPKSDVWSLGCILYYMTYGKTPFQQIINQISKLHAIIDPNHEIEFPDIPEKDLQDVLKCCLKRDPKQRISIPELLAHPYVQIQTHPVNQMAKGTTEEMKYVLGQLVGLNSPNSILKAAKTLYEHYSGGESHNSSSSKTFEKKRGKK

IC50 (COLO 205): 800 nM
Kd [1]: 0.7 nM
Compound: CCC(=O)N[C@H]1CC[C@@H](n2c(=O)cc(C)c3cnc(Nc4ccc(N5CCN(C)CC5)cc4OC)nc32)CC1
